In patent US8343983B2, “Substituted pyrazolo-pyrimidine compounds” (ArQule, Inc., priority 2009, dated 2013):
Read-outs that look alike come from different tables or passages of the source.

Legend:
[1] = system: cancer cells; assay: MTS assay: inhibition of cell growth (formazan absorbance at 492 nm after 72 hours with test compound); assay type: cell-based; settings: inhibition class
Procedure, shortened: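 DMEM with 1% FBS; cells seeded at 3000/well and grown 18 h at 37 °C, then exposed to compound for 72 h and to MTS/PMS for 4 h. IC50 is the concentration giving a 50% absorbance drop; grades are % inhibition bands.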

[2] = Homo sapiens, DLD-1 cells, read-out: DLD-1, MTS 72 hours at 10 uM
[3] = Homo sapiens, KATO III cells, read-out: KATO III, MTS 72 hours at 10 uM
[4] = Homo sapiens, MDA-MB-231 cells, read-out: MDA-MB-231, MTS 72 hours at 10 uM
[5] = Homo sapiens, NCI-H1299 cells, read-out: NCI-H1299, MTS 72 hours at 10 uM
[6] = Homo sapiens, PC-3 cells, read-out: PC-3, MTS 72 hours at 10 uM
[7] = PACA-2 cells, read-out: PACA-2, MTS 72 hours at 10 uM

melting point | SMILES | inhibition at 10 µM [1, 2] | inhibition at 10 µM [1, 3] | inhibition at 10 µM [1, 4] | inhibition at 10 µM [1, 5] | inhibition at 10 µM [1, 6] | inhibition at 10 µM [1, 7]
118 to 120 °C | COc1ccc(CN2CCc3nn(Cc4ccccc4)c4nc(N5CCOCC5)nc2c34)cc1 [Compound 131, 4-(1-benzyl-5-(4-methoxybenzyl)-1,3,4,5-tetrahydro-1,2,5,6,8-pentaazaacenaphthylen-7-yl)morpholine] | – | – | – | – | – | –
– | COc1ccc(CN2CCCc3n[nH]c4nc(NCc5ccc(Cl)cc5)nc2c34)cc1 [Compound 253, N-(4-chlorobenzyl)-6-(4-methoxybenzyl)-6,7,8,9-tetrahydro-2H-1,2,3,5,6-pentaazabenzo[cd]azulen-4-amine] | < 50% | < 50% | < 50% | 50 to 79% | < 50% | < 50%
– | COc1ccc(CN2CCCc3n[nH]c4nc(N5CCN(Cc6ccccc6)CC5)nc2c34)cc1 [Compound 254, 4-(4-benzylpiperazin-1-yl)-6-(4-methoxybenzyl)-6,7,8,9-tetrahydro-2H-1,2,3,5,6-pentaazabenzo[cd]azulene] | > 79% | > 79% | > 79% | > 79% | > 79% | > 79%
